Measured values: ChEMBL document CHEMBL2385026, “Identification of C-2 hydroxyethyl imidazopyrrolopyridines as potent JAK1 inhibitors with favorable physicochemical properties and high selectivity over JAK2” (J Med Chem, 2013)
Values after ≈ are worked out from the molar mass of the structure shown. Values belong to the compound of their own block, whether it stands above or below them.

Assays:
[1] = Hepatic clearance in human liver microsomes by LC/MS/MS analysis; format: ADME, Microsome
[2] = Hepatic clearance in human hepatocytes after 1 to 4 hrs by LC/MS/MS analysis; format: ADME, cell-based, Liver, Hepatocyte
[3] = Apparent permeability across apical to basolateral side in dog MDCK cells; format: ADME, cell-based, Canis lupus familiaris
[4] = biological target: T1, Tyrosine-protein kinase JAK1 (Homo sapiens, UniProt P23458)
[5] = biological target: T1, Tyrosine-protein kinase JAK1; remark: listed apart in the source
[6] = biological target: T1, Tyrosine-protein kinase JAK1; remark: listed apart in the source
[7] = biological target: T2, Tyrosine-protein kinase JAK2 (Homo sapiens, UniProt O60674); format: cell-based, TF-1
[8] = biological target: T2, Tyrosine-protein kinase JAK2
Cytochrome P450 3A4 [9] = biological target: T3, Cytochrome P450 3A4 (Homo sapiens, UniProt P08684); test: Reversible inhibition of CYP3A4 in human liver microsomes using testosterone as substrate by LC/MS/MS analysis; format: ADME, Microsome
Cytochrome P450 1A2 = biological target: T4, Cytochrome P450 1A2 (Homo sapiens, UniProt P05177); test: Reversible inhibition of CYP1A2 in human liver microsomes using phenacetin as substrate by LC/MS/MS analysis; format: ADME, Microsome
T4 sequence (P05177 whole entry): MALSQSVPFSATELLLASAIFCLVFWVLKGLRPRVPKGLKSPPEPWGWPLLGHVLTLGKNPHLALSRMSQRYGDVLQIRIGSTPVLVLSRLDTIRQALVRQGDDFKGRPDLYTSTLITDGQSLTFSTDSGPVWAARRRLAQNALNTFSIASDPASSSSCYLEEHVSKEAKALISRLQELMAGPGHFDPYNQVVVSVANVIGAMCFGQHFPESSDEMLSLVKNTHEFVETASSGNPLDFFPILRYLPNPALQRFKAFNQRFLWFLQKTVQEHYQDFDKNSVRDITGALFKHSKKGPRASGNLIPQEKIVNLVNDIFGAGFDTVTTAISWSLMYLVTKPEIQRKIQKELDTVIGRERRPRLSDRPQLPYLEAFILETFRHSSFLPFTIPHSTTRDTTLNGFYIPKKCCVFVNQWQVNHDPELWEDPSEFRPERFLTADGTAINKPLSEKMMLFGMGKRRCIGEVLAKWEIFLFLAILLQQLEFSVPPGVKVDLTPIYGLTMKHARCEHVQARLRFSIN

Cytochrome P450 3A4 [10] = biological target: T3, Cytochrome P450 3A4; test: Reversible inhibition of CYP3A4 in human liver microsomes using midazolam as substrate by LC/MS/MS analysis; format: ADME, Microsome
[11] = biological target: Tyrosine-protein kinase JAK3 (Homo sapiens, UniProt P52333)
[12] = Oral bioavailability in Beagle dog at 2 mg/kg by LC/MS/MS analysis; format: ADME, organism-based, Canis lupus familiaris; settings: Beagle, in vivo
[13] = Oral bioavailability in Sprague-Dawley rat at 2 mg/kg by LC/MS/MS analysis; format: ADME, organism-based; settings: Sprague-Dawley, in vivo
[14] = Cmax in Beagle dog at 2 mg/kg, po by LC/MS/MS analysis; format: ADME, organism-based, Canis lupus familiaris; parameters: dose 2 mg/kg, route oral; settings: in vivo
[15] = AUC in Beagle dog at 2 mg/kg, po by LC/MS/MS analysis; format: ADME, organism-based, Canis lupus familiaris; parameters: dose 2 mg/kg, route oral; settings: plasma
[16] = AUC in Sprague-Dawley rat at 2 mg/kg, po by LC/MS/MS analysis; format: ADME, organism-based; parameters: dose 2 mg/kg, route oral; settings: plasma
[17] = Half life in Beagle dog at 0.4 mg/kg, iv by LC/MS/MS analysis; format: ADME, organism-based, Canis lupus familiaris; parameters: dose 0.4 mg/kg, route intravenous; settings: in vivo
[18] = Half life in Sprague-Dawley rat at 0.4 mg/kg, iv by LC/MS/MS analysis; format: ADME, organism-based; parameters: dose 0.4 mg/kg, route intravenous; settings: in vivo
[19] = Clearance in Beagle dog at 0.4 mg/kg, iv by LC/MS/MS analysis; format: ADME, organism-based, Canis lupus familiaris; parameters: dose 0.4 mg/kg, route intravenous; settings: in vivo
[20] = Clearance in Sprague-Dawley rat at 0.4 mg/kg, iv by LC/MS/MS analysis; format: ADME, organism-based; parameters: dose 0.4 mg/kg, route intravenous; settings: in vivo
[21] = Metabolic stability in monkey hepatocytes assessed as hepatic clearance; format: ADME, cell-based, Macaca mulatta, Liver, Hepatocyte; settings: rhesus monkey
[22] = Metabolic stability in dog hepatocytes assessed as hepatic clearance; format: ADME, cell-based, Canis lupus familiaris, Liver, Hepatocyte
[23] = Metabolic stability in rat hepatocytes assessed as hepatic clearance; format: ADME, cell-based, Liver, Hepatocyte
[24] = Plasma protein binding in cynomolgus monkey; format: ADME, cell-free, Macaca fascicularis; settings: read-out: PPB (converted)
[25] = Plasma protein binding in dog; format: ADME, cell-free, Canis lupus familiaris; settings: read-out: PPB (converted)
[26] = Apparent permeability across basolateral to apical side in dog MDCK cells; format: ADME, cell-based, Canis lupus familiaris
[27] = Plasma protein binding in rat; format: ADME, cell-free; settings: read-out: PPB (converted)
[28] = Thermodynamic solubility in aqueous buffer at pH 7.4; format: physicochemical; settings: read-out: Therm_solubility
[29] = Thermodynamic solubility in aqueous buffer at pH 2; format: physicochemical; settings: read-out: Therm_solubility
[30] = Cmax in Sprague-Dawley rat at 2 mg/kg, po by LC/MS/MS analysis; format: ADME, organism-based; parameters: dose 2 mg/kg, route oral; settings: in vivo
Cytochrome P450 2C19 = Cytochrome P450 2C19 (Homo sapiens, UniProt P33261)
Cytochrome P450 2D6 = Cytochrome P450 2D6 (Homo sapiens, UniProt P10635)
Cytochrome P450 2C9 = Cytochrome P450 2C9 (Homo sapiens, UniProt P11712)
[31] = biological target: Voltage-gated inwardly rectifying potassium channel KCNH2 (Homo sapiens, UniProt Q12809)
[32] = biological target: T5, Non-receptor tyrosine-protein kinase TYK2 (Homo sapiens, UniProt P29597)
[33] = biological target: T5, Non-receptor tyrosine-protein kinase TYK2; remark: listed apart in the source

T1 sequence (P23458 whole entry): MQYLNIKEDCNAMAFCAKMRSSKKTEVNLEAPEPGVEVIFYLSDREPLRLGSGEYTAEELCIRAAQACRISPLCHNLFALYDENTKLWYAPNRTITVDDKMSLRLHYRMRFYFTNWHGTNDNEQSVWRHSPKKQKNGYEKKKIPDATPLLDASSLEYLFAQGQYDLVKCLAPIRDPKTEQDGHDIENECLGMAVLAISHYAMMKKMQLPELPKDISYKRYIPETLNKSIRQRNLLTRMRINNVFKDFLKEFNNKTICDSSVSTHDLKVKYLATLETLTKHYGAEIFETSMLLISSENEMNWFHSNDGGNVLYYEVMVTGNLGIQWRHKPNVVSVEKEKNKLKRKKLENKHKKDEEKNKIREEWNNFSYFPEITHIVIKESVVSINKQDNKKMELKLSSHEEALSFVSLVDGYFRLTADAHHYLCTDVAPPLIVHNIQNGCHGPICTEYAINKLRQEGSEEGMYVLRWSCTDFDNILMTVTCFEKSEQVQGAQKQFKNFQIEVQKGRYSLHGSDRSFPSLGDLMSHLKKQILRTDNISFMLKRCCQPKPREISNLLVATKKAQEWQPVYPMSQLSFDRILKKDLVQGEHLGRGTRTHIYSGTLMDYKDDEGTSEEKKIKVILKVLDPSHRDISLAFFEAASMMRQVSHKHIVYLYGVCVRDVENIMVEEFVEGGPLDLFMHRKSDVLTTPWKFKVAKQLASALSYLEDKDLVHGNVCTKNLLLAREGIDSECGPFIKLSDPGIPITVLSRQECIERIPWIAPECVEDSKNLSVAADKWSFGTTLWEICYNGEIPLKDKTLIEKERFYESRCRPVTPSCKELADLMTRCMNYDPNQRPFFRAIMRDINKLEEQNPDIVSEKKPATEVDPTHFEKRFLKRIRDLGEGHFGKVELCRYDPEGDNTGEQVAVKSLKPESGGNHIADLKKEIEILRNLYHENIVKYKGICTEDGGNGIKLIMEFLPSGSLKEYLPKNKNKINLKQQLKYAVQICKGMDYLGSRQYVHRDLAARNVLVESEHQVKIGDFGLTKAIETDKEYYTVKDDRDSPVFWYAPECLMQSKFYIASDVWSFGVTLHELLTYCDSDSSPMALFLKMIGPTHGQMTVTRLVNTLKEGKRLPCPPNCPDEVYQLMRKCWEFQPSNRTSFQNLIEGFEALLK
T2 sequence (O60674 whole entry): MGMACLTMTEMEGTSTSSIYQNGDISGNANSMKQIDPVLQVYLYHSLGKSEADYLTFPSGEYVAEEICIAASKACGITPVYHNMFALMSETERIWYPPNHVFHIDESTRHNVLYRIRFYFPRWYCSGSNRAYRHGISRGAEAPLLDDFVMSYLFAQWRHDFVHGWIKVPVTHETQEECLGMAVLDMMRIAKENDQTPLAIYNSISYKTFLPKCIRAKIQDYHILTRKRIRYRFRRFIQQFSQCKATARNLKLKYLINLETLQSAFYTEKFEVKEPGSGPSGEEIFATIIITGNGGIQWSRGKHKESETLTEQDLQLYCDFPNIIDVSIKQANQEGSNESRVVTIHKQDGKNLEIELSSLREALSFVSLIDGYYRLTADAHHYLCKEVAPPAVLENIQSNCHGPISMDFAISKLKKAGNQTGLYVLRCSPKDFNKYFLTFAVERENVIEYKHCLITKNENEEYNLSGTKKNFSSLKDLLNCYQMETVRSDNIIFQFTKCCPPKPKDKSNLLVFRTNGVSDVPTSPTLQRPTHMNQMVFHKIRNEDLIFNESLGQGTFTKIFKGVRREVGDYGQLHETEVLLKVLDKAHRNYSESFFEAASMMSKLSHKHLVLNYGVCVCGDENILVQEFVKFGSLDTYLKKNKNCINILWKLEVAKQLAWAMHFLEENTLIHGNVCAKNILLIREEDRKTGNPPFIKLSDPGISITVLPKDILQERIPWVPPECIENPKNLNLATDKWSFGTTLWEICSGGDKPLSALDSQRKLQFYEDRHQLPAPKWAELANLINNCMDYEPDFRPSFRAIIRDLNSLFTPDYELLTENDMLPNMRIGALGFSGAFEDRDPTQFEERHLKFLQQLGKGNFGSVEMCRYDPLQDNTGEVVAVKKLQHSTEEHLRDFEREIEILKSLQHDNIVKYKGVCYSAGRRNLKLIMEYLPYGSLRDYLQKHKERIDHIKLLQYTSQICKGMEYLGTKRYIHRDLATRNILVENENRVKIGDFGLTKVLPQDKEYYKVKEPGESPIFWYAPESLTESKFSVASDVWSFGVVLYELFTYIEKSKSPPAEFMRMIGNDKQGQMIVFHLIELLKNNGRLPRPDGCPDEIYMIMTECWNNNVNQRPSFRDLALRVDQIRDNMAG
T5 sequence (P29597 whole entry): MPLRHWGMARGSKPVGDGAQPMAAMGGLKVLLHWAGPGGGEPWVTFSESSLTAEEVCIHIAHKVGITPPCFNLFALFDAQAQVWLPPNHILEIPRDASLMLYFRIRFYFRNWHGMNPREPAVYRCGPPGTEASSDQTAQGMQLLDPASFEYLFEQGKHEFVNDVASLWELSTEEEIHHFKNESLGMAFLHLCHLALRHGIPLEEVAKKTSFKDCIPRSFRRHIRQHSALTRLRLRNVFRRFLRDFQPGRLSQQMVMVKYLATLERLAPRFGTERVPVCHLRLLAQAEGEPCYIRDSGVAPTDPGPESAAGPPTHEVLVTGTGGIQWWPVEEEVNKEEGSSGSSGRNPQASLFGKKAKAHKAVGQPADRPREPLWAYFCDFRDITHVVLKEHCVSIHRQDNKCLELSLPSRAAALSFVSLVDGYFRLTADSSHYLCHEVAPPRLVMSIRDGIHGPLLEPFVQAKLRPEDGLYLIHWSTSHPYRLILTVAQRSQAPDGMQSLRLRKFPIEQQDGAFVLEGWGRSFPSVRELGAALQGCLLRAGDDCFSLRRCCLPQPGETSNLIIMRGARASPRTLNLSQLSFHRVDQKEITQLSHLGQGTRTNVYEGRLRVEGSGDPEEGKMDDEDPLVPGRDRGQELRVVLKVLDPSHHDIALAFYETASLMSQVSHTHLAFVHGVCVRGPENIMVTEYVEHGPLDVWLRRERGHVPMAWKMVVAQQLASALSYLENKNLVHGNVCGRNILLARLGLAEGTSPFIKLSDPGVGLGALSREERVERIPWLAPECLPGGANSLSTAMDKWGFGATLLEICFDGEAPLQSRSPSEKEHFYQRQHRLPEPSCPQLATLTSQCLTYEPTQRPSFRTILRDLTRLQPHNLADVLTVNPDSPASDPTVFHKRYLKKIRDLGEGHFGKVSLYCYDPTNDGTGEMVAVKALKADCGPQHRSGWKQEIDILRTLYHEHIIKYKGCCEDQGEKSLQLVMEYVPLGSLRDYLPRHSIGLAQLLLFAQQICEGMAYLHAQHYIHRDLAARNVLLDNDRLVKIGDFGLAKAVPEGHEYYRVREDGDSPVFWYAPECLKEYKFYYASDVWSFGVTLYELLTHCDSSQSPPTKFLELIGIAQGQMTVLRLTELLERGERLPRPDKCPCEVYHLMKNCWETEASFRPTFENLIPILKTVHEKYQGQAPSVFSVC
T3 sequence (P08684 whole entry): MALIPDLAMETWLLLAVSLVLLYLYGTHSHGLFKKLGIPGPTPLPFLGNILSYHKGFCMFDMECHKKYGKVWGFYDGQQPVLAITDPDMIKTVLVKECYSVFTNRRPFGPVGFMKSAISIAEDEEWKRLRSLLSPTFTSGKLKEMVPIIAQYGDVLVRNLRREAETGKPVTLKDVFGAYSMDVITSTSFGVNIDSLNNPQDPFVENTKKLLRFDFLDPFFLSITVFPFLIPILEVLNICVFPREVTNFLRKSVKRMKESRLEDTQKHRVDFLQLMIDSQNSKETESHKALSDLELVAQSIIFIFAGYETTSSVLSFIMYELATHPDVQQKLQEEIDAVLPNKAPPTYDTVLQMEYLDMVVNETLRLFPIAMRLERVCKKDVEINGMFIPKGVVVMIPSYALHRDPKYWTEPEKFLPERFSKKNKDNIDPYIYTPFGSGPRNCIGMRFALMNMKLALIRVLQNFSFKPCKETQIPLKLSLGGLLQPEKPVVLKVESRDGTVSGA
Tyrosine-protein kinase JAK3, sequence (P52333 whole entry): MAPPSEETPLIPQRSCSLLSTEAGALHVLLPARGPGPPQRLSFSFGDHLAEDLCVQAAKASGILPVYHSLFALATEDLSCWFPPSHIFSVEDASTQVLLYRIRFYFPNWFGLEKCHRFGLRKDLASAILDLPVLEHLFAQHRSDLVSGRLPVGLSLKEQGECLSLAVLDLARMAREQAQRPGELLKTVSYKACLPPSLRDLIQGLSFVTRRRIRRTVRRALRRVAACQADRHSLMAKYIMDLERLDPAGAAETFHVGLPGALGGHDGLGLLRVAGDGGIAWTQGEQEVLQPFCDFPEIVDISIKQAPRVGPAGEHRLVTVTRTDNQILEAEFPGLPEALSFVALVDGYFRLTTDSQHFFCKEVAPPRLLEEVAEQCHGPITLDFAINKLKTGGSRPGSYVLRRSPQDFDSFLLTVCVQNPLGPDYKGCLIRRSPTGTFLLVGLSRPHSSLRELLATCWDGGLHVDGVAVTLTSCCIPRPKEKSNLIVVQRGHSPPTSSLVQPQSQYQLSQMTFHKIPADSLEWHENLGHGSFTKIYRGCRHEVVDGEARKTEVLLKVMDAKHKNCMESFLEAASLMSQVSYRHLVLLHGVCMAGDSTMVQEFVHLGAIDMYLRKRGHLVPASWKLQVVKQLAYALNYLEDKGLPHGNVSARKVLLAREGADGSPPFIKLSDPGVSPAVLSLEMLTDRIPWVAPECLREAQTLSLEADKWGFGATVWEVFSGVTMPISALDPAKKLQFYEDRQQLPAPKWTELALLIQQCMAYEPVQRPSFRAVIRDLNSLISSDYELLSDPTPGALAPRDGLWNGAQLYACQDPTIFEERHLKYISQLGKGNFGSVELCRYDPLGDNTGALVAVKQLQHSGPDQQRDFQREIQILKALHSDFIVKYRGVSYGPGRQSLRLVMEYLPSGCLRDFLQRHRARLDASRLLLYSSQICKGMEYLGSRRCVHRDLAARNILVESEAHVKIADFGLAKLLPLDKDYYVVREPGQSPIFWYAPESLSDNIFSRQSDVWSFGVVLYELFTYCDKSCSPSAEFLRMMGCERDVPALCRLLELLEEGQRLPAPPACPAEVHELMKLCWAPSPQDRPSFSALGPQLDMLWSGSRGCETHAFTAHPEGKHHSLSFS

Compound: C[C@@H](O)c1nc2cnc3[nH]ccc3c2n1[C@@H]1CCCN(C(=O)CC#N)C1
CLhep predicted [1]: 1 mL/min/kg | Papp A→B [3]: 0.2 ×10⁻⁶ cm/s | EC50 [5]: 8200 nM | Ki [6]: 5.2 nM

Compound: C[C@@H](O)c1nc2cnc3[nH]ccc3c2n1[C@H]1CC[C@@H](NCC(F)(F)F)CC1
CLhep predicted [1]: 18 mL/min/kg | CLhep predicted [2]: 16 mL/min/kg | Ki [6]: 53 nM

Compound: C[C@@H](O)c1nc2cnc3[nH]ccc3c2n1[C@@H]1CCCN(C(=O)CC(F)(F)F)C1
CLhep predicted [1]: 5.2 mL/min/kg | Ki [6]: 43 nM

Compound: C[C@@H](O)c1nc2cnc3[nH]ccc3c2n1C1CCCCC1
Papp A→B [3]: 23 ×10⁻⁶ cm/s | EC50 [7]: 1700 nM | Ki [8]: 21 nM

Compound: C[C@@H](O)c1nc2cnc3[nH]ccc3c2n1[C@H]1CC[C@H](O)CC1
CLhep predicted [1]: 1.9 mL/min/kg | EC50 [4]: 730 nM | EC50 [5]: 410 nM

Compound: CC(C)(O)c1nc2cnc3[nH]ccc3c2n1C1CCCCC1
Papp A→B [3]: 19 ×10⁻⁶ cm/s | EC50 [7]: 4400 nM | Ki [8]: 76 nM | EC50 [5]: 330 nM | Ki [6]: 13 nM

The next lines start with results.

CLhep predicted [1]: 4.3 mL/min/kg | CLhep predicted [2]: 5.6 mL/min/kg | Papp A→B [3]: 4.2 ×10⁻⁶ cm/s | EC50 [4]: 78 nM | EC50 [5]: 49 nM | Ki [6]: 0.9 nM
Compound: C[C@@H](O)c1nc2cnc3[nH]ccc3c2n1[C@H]1CC[C@@H](C#N)CC1

EC50 [5]: 320 nM | Ki [6]: 7.2 nM
Compound: OC[C@H](O)c1nc2cnc3[nH]ccc3c2n1C1CCCCC1

Papp A→B [3]: 1.1 ×10⁻⁶ cm/s | EC50 [4]: 140 nM | EC50 [5]: 120 nM
Compound: C[C@@H](O)c1nc2cnc3[nH]ccc3c2n1[C@@H]1CCC[C@@H](O)C1

CLhep predicted [1]: 1.8 mL/min/kg | CLhep predicted [2]: 6.8 mL/min/kg | Papp A→B [3]: 16 ×10⁻⁶ cm/s | EC50 [4]: 220 nM | EC50 [5]: 69 nM | Ki [6]: 1.6 nM
Compound: OC[C@@H](O)c1nc2cnc3[nH]ccc3c2n1C1CCCCC1

CLhep predicted [1]: 2.9 mL/min/kg | CLhep predicted [2]: 3.7 mL/min/kg | Papp A→B [3]: 15 ×10⁻⁶ cm/s | EC50 [4]: 330 nM | EC50 [5]: 88 nM | Ki [6]: 2 nM
Compound: CCN1CCC(n2c([C@@H](C)O)nc3cnc4[nH]ccc4c32)C(F)(F)C1 (stereo partly drawn)

IC50 (Cytochrome P450 3A4 [9]): > 10000 nM | IC50 (Cytochrome P450 1A2): > 10000 nM | IC50 (Cytochrome P450 3A4 [10]): > 10000 nM | Ki [11]: 76 nM | bioavailability [12]: 139% | bioavailability [13]: 54% | Cmax [14]: 2100 nM | AUC [15]: 9.9 µM·h | AUC [16]: 1.4 µM·h | half-life [17]: 1.7 h | half-life [18]: 0.5 h | clearance [19]: 13 mL/min/kg | clearance [20]: 36 mL/min/kg | CLhep predicted [21]: 26 mL/min/kg | CLhep predicted [22]: 2.3 mL/min/kg | CLhep predicted [23]: 11 mL/min/kg | fraction unbound [24]: 0.35 | fraction unbound [25]: 0.45 | Papp B→A [26]: 10 ×10⁻⁶ cm/s | fraction unbound [27]: 0.44 | solubility thermodynamic [28]: 130 µM (≈ 49.6 µg/mL) | solubility thermodynamic [29]: 3900 µM (≈ 1490 µg/mL) | CLhep predicted [1]: 3.3 mL/min/kg | CLhep predicted [2]: 2 mL/min/kg | Papp A→B [3]: 6.7 ×10⁻⁶ cm/s | Cmax [30]: 960 nM | IC50 (Cytochrome P450 2C19): > 10000 nM | IC50 (Cytochrome P450 2D6): > 10000 nM | IC50 (Cytochrome P450 2C9): > 10000 nM | EC50 [32]: 310 nM | Ki [33]: 3.4 nM | EC50 [4]: 29 nM | EC50 [5]: 28 nM | Ki [6]: 0.8 nM
Compound: C[C@@H](O)c1nc2cnc3[nH]ccc3c2n1[C@H]1CC[C@H](NCC(F)(F)F)CC1
IC50 [31]: > 100000 nM
